# Measured values: patent EP3569594A1, “METHOD FOR THE PREPARATION OF SUBSTITUTED PYRAZINES” (Universität Graz, priority 2018, dated 2019)
# How the values were obtained:
# OYE2 = target: T1, OYE2 (Saccharomyces cerevisiae, UniProt Q03558); experiment: Reactivity screening of oximes with purified ene-reductase, conversion by GC-FID; type: biochemical; settings: OYE2 100 µg/ml, 10 mM Oxim, 0,5 mM NAD(P)H/H+, Glucose/GDH, Tris-HCl pH 7,5, 30 °C, 24 h
# T1 construct: made in house; host or cells: E. coli BL21(DE3)
# Source text: (§1) Die En-Reduktase ist zwar nicht speziell eingeschränkt, ist aber vorzugsweise aus der OYE-Familie, d.h. der Familie der "Old Yellow Enzymes" ausgewählt, da Vertreter dieser Gruppe von Enzymen allesamt gute Ergebnisse geliefert haben. Noch bevorzugter ist die ER aus den folgenden bereits getesteten Enzymen ausgewählt: • OYE1 von Saccharomyces pastorianus, • OYE2 von Saccharomyces cerevisiae, • OYE3 von Saccharomyces cerevisiae, • 12-Oxophytodienoat-Reduktase 3 (OPR3) von Arabidopsis thaliana, • xenobiotischer Reduktase A (XenA) von Pseudomonas putida II-B und • En-Reduktase von Ferrovum sp. JA12 (FOYE).
# (§2) Plasmide, die jeweils ein für eine der En-Reduktasen OYE1, OYE2, OYE3, OPR3, XenA und FOYE kodierendes Gen enthielten, wurden in chemisch kompetente E. coli BL21(DE3)-Zellen transformiert. Die sechs Über-Nacht-Kulturen wurden in LB-Medium, das mit 50 µg/ml Kanamycin (für OYE1-3 und FOYE) oder 100 µg/ml Ampicillin (für OPR3 und XenA) ergänzt worden war, bei 30 °C und 120 U/min kultiviert. Hauptkulturen (1 l LB-Medium, 50 µg/ml Kanamycin oder 100 µg/ml Ampicillin) wurden mit je 3 ml der entsprechenden Über-Nacht-Kultur inokuliert und bei 37 °C, 120 U/min geschüttelt, bis die OD600 0,6 bis 0,8 erreichte. Die Proteinproduktion wurde durch Zusatz von Isopropyl-β-D-thiogalactopyranosid (IPTG) (0,2 mM für OYE1-3 und XenA, 1 mM für OPR3 und 0,05 mM für FOYE) induziert und bei 20 °C über Nacht (für OYE1-3 und FOYE) oder bei 37 °C 4 h lang (für XenA und OPR3) geschüttelt. Die Zellen wurden durch Zentrifugation (5000 U/min, 4 °C, 20 min) geerntet, das Pellet wurde mit 100 mM Tris-HCI-Puffer pH 7,5 (25 ml) gewaschen und bei -20 °C gelagert.
# (§3) Als Modellreaktion für die Feststellung der Enzymaktivität wurde im Handel erhältlicher 2-Oximinoacetessigsäureethylester (1a) mit den sechs in den Synthesebeispielen 1 bis 6 hergestellten En-Reduktasen (ER) in analytischem Maßstab umgesetzt. Dazu wurden in ein 2-ml-Eppendorf-Röhrchen 100 µg/ml der jeweiligen gereinigten En-Reduktase, 0,5 mM NAD(P)H/H^+, 50 mM Glucose und 1 mg/ml GDH in 100 mM Tris-HCl-Puffer, pH 7,5, gelöst. Die Reaktionen wurden durch Zugabe von 10 mM Oxim (1a) (aus einer 200 mM Stammlösung in DMSO) auf ein Endvolumen von 500 µl gestartet und 24 h lang bei 30 °C, 120 U/min geschüttelt. Danach wurden die Reaktionsgemische jeweils mit 1 ml Chloroform extrahiert, die organische Phase wurde über MgSO4 getrocknet und mittels GC-FID analysiert und der Umsatz anhand der Peakflächenprozentsätze ermittelt. Wie aus nachstehender Tabelle 1 hervorgeht, wurde nach 24 h in allen sechs Fällen praktisch vollständiger Umsatz festgestellt. Tabelle 1: Anfängliches Reaktivitätsscreening mit Modelloxim (1a)
# (§4) Zur Ermittlung, welche anderen Derivate der 2-Oximinoacetessigsäure mittels enzymatischer Katalyse durch die sechs in den Synthesebeispielen 1 bis 6 hergestellten En-Reduktasen (1) zu Pyrazindicarbonsäure-Derivaten (2) umsetzbar sein würden, wurden die für die Beispiele 1 bis 6 beschriebene Vorgangsweise unter Verwendung der in den Synthesebeispielen 7 bis 13 hergestellten Oxime (1b) bis (1h) anstelle von (1a) wiederholt. Überraschenderweise wurde in sämtlichen Fällen nach 24 h praktisch vollständiger Umsatz beobachtet, wie aus nachstehender Tabelle 2 hervorgeht. Tabelle 2: Reaktivitätsscreening mit den Oximen (1b) bis (1h)
# OPR3 = target: T2, OPR3 (Arabidopsis thaliana, UniProt Q9FUP0); experiment: as above; type: biochemical; settings: OPR3 100 µg/ml, 10 mM Oxim, 0,5 mM NAD(P)H/H+, Glucose/GDH, Tris-HCl pH 7,5, 30 °C, 24 h
# T2 construct: made in house; host or cells: E. coli BL21(DE3)
# Source text: as §1, §2, §3, §4
# OYE3 = target: T3, OYE3 (Saccharomyces cerevisiae, UniProt P41816); experiment: as above; type: biochemical; settings: OYE3 100 µg/ml, 10 mM Oxim, 0,5 mM NAD(P)H/H+, Glucose/GDH, Tris-HCl pH 7,5, 30 °C, 24 h
# T3 construct: made in house; host or cells: E. coli BL21(DE3)
# Source text: as §1, §2, §3, §4
# OYE1 = target: T4, OYE1 (Saccharomyces pastorianus, UniProt Q02899); experiment: as above; type: biochemical; settings: OYE1 100 µg/ml, 10 mM Oxim, 0,5 mM NAD(P)H/H+, Glucose/GDH, Tris-HCl pH 7,5, 30 °C, 24 h
# T4 construct: made in house; host or cells: E. coli BL21(DE3)
# Source text: as §1, §2, §3, §4
# XenA = experiment: as above; type: biochemical, Pseudomonas putida II-B; settings: XenA 100 µg/ml, 10 mM Oxim, 0,5 mM NAD(P)H/H+, Glucose/GDH, Tris-HCl pH 7,5, 30 °C, 24 h
# Source text: as §1, §2, §3, §4
# FOYE [1] = experiment: as above; type: biochemical, Ferrovum sp. JA12; settings: FOYE 100 µg/ml, 10 mM Oxim, 0,5 mM NAD(P)H/H+, Glucose/GDH, Tris-HCl pH 7,5, 30 °C, 24 h
# Source text: as §1, §2, §3, §4
# FOYE [2] = experiment: Photometric activity measurement by consumption of coenzyme NAD(P)H/H+ with diketone oximes; type: biochemical, Ferrovum sp. JA12
# Source text: Zur Untersuchung, ob die enzymatische Katalyse auch mit 2-Oximino-1,3-diketonen anstelle der 2-Oximinoacetessigsäure-Derivate als Substrate abläuft, d.h. ob das Carbonsäure-Ende des Substratmoleküls für die Reaktion erforderlich ist, wurden die drei nachstehend dargestellten Diketon-Oxime (3a), (3b) und (3c) [drawing 12] auf analoge Weise zu den obigen Synthesebeispielen 7 bis 13 aus den entsprechenden Diketon-Ausgangsprodukten (Acetylaceton, ω-Acetylacetophenon und 1-Isopropylacetylaceton) hergestellt und auf analoge Weise zu den obigen Beispielen 7 und 8 mit FOYE als En-Reduktase umgesetzt.
# Während der Reaktionen wurden photometrische Aktivitätsmessungen durchgeführt, bei denen die Enzymaktivität anhand des Verbrauchs des Coenzyms NAD(P)H/H^+ bestimmt wurde. Die Ergebnisse sind in nachstehender Tabelle 3 angeführt. Tabelle 3: Reaktivitätsscreening mit den Diketon-Oximen (3a) bis (3c)
# T2 sequence (Q9FUP0 whole entry): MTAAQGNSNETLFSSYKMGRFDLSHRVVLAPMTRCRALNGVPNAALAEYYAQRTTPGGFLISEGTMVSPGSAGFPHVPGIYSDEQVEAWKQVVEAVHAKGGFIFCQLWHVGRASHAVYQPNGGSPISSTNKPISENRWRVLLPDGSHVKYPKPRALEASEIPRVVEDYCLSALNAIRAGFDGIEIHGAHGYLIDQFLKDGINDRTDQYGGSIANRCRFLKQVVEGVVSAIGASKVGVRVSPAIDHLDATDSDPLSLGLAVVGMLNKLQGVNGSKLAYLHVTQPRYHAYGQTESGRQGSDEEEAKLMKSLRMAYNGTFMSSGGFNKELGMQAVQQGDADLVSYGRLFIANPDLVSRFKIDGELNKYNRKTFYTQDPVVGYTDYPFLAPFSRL
# T1 sequence (Q03558 whole entry): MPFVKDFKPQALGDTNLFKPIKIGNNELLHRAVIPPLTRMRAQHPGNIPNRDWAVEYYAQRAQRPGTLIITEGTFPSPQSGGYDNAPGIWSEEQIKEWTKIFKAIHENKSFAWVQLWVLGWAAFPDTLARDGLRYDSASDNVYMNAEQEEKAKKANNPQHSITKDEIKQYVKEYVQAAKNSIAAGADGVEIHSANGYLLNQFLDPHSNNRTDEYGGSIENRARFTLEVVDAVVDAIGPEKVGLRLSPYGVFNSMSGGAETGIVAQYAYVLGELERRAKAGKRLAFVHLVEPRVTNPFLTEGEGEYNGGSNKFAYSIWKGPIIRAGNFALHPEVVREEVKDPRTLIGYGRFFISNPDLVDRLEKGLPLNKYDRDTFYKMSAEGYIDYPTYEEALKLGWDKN
# T3 sequence (P41816 whole entry): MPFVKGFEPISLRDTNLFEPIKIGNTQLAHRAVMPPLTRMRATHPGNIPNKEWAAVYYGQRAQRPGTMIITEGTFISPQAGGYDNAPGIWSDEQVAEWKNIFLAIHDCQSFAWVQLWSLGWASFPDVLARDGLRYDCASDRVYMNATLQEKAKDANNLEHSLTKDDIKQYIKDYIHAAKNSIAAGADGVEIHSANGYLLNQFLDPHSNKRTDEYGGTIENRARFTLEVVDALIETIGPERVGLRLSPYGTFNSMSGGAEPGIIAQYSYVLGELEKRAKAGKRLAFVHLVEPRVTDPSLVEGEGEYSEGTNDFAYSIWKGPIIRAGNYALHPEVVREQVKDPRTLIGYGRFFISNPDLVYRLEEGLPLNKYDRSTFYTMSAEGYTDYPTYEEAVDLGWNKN
# T4 sequence (Q02899 whole entry): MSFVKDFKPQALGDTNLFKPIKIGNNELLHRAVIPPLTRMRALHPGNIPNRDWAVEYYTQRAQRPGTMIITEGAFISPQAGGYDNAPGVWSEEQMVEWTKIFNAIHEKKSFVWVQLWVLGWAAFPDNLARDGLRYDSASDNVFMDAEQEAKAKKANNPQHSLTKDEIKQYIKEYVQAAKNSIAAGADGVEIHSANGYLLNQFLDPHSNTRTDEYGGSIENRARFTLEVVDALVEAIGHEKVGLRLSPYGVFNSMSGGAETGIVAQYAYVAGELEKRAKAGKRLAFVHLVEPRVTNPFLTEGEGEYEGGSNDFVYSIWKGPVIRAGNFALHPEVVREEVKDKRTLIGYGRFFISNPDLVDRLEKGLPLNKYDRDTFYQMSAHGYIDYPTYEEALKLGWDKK
Umsatz (OYE2) [%],Umsatz (OPR3) [%],Umsatz (OYE3) [%],Umsatz (OYE1) [%],Umsatz (XenA) [%],Umsatz (FOYE [1]) [%],Aktivität (FOYE [2]) [U/mg],Compound
> 99,> 99,> 99,> 99,> 99,> 99,–,"CCCCOC(=O)C(=NO)C(C)=O [(1d), 2-Oximinoacetessigsäurebutylester]"
–,–,–,–,–,–,23,"CC(=O)C(=NO)C(=O)CC(C)C [Oxim 3c, 1-Isopropyl-3-oximinoacetylaceton]"
> 99,> 99,> 99,> 99,> 99,> 99,–,"CCOC(=O)C(=NO)C(C)=O [(1a), 2-Oximinoacetessigsäureethylester, reference compound]"
–,–,–,–,–,–,6,"CC(=O)C(=NO)C(C)=O [Oxim 3a, 3-Oximinoacetylaceton]"
> 99,> 99,> 99,> 99,> 99,> 99,–,"CC(=O)C(=NO)C(=O)Nc1ccccc1 [(1b), 2-Oximinoacetessigsäure-N-phenylamid]"
–,–,–,–,–,–,18,"CC(=O)C(=NO)C(=O)c1ccccc1 [Oxim 3b, α-Acetyl-α-oximinoacetophenon]"
> 99,> 99,> 99,> 99,> 99,> 99,–,"C=CCOC(=O)C(=NO)C(C)=O [(1c), 2-Oximinoacetessigsäureallylester]"
> 99,> 99,> 99,> 99,> 99,> 99,–,"CCCCCCCOC(=O)C(=NO)C(C)=O [(1f), 2-Oximinoacetessigsäureheptylester]"
> 99,> 99,> 99,> 99,> 99,> 99,–,"COCCOC(=O)C(=NO)C(C)=O [(1g), 2-Oximinoacetessigsäure-2-methoxyethylester]"
> 99,> 99,> 99,> 99,> 99,> 99,–,"CC(=O)C(=NO)C(=O)OCc1ccccc1 [(1e), 2-Oximinoacetessigsäurebenzylester]"
> 99,> 99,> 99,> 99,> 99,> 99,–,"CCOC(=O)C(=NO)C(=O)CC [(1h), 4-Methyl-2-oximinoacetessigsäureethylester]"
